Source: ChEMBL document CHEMBL6153040, “Discovery of the salicylaldehyde-based compound DDO-02267 as a lysine-targeting covalent inhibitor of ALKBH5” (Eur J Med Chem, 2025)
The source made the active and inactive calls. The rule behind the calls is not given here.

Assays:
RNA demethylase ALKBH5 [1] = target: T1, RNA demethylase ALKBH5 (Homo sapiens, UniProt Q6P6C2); test: Inhibition of ALKBH5 (66 to 292 residues) (unknown origin) extracted from Escherichia coli BL21 (DE3) cells using m6A ssDNA as substrate measured after 1 hrs by fluorescence polarization assay
Target sequence in this assay (Q6P6C2 whole entry, the tested form may be a part): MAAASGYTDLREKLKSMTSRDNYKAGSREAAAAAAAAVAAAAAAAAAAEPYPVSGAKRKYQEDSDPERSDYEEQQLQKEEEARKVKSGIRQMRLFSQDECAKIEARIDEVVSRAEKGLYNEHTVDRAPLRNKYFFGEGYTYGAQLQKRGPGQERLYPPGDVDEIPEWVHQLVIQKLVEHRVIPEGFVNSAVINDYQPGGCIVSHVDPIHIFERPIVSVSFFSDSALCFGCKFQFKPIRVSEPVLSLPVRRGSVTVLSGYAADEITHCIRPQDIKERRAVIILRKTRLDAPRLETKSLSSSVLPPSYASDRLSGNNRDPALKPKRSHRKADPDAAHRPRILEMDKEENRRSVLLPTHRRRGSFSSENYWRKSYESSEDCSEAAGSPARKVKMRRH

RNA demethylase ALKBH5 [2] = target: T1, RNA demethylase ALKBH5; test: Inhibition of ALKBH5 (66 to 292 residues) (unknown origin) extracted from Escherichia coli BL21 (DE3) cells using m6A ssDNA as substrate measured immediately by fluorescence polarization assay
Target sequence in this assay (Q6P6C2 whole entry, the tested form may be a part): as above

RNA demethylase ALKBH5 [3] = target: T1, RNA demethylase ALKBH5; test: Inhibition of ALKBH5 (66 to 292 residues) (unknown origin) extracted from Escherichia coli BL21 (DE3) cells using m6A ssDNA as substrate measured after 2 hrs by fluorescence polarization assay
Target sequence in this assay (Q6P6C2 whole entry, the tested form may be a part): as above

RNA demethylase ALKBH5 [4] = target: T1, RNA demethylase ALKBH5; test: Inhibition of ALKBH5 (66 to 292 residues) (unknown origin) extracted from Escherichia coli BL21 (DE3) cells using m6A ssDNA as substrate measured after 6 hrs by fluorescence polarization assay
Target sequence in this assay (Q6P6C2 whole entry, the tested form may be a part): as above

RNA demethylase ALKBH5 [5] = target: T1, RNA demethylase ALKBH5; test: Inhibition of ALKBH5 (66 to 292 residues) (unknown origin) demethylase activity extracted from Escherichia coli BL21 (DE3) cells at 200 uM preincubated for 3 hrs and measured after compound washout by small molecule dilution method
Target sequence in this assay (Q6P6C2 2-394 limits assumed): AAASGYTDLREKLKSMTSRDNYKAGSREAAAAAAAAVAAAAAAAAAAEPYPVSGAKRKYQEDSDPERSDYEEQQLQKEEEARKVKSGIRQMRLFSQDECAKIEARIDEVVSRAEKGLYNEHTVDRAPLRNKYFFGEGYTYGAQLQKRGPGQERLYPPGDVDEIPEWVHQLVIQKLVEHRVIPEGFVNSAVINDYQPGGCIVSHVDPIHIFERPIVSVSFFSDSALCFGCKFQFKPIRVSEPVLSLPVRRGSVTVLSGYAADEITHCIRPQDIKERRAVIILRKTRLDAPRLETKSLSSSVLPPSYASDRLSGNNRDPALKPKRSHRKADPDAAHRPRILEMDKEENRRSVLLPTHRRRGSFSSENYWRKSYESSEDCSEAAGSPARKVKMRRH

RNA demethylase ALKBH5 [6] = target: T1, RNA demethylase ALKBH5; test: Inhibition of ALKBH5 (66 to 292 residues) (unknown origin) extracted from Escherichia coli BL21 (DE3) cells using m6A ssDNA as substrate at 1.25 to 10 uM incubated for 2 hrs in presence of 2-OG by TBE-PAGE based restriction enzyme digestion assay; conditions: dose 1.25-10 µM
Target sequence in this assay (Q6P6C2 2-394 limits assumed): as above

RNA demethylase ALKBH5 [7] = target: T1, RNA demethylase ALKBH5; test: Binding affinity to ALKBH5 (66 to 292 residues) (unknown origin) extracted from Escherichia coli BL21 (DE3) cells assessed as dissociation constant incubated for 5 hrs by MST analysis
Target sequence in this assay (Q6P6C2 whole entry, the tested form may be a part): as the sequence (Q6P6C2 whole entry, the tested form may be a part) above

RNA demethylase ALKBH5 [8] = target: T1, RNA demethylase ALKBH5; test: Inhibition of ALKBH5 (66 to 292 residues) (unknown origin) extracted from Escherichia coli BL21 (DE3) cells using m6A ssDNA as substrate incubated for 2 hrs by TBE-PAGE based restriction enzyme digestion assay
Target sequence in this assay (Q6P6C2 2-394 limits assumed): as the sequence (Q6P6C2 2-394 limits assumed) above

RNA demethylase ALKBH5 [9] = target: T1, RNA demethylase ALKBH5; test: Binding affinity to ALKBH5 (66 to 292 residues) (unknown origin) extracted from Escherichia coli BL21 (DE3) cells assessed as dissociation constant incubated for 4 hrs by MST analysis
Target sequence in this assay (Q6P6C2 whole entry, the tested form may be a part): as the sequence (Q6P6C2 whole entry, the tested form may be a part) above

RNA demethylase ALKBH5 [10] = target: T1, RNA demethylase ALKBH5; test: Binding affinity to ALKBH5 (66 to 292 residues) (unknown origin) extracted from Escherichia coli BL21 (DE3) cells assessed as dissociation constant incubated for 1.5 hrs by MST analysis
RNA demethylase ALKBH5 [11] = target: T1, RNA demethylase ALKBH5; test: Binding affinity to ALKBH5 (66 to 292 residues) (unknown origin) extracted from Escherichia coli BL21 (DE3) cells assessed as dissociation constant incubated for 3 hrs by MST analysis
RNA demethylase ALKBH5 [12] = target: T1, RNA demethylase ALKBH5; test: Binding affinity to ALKBH5 (66 to 292 residues) (unknown origin) extracted from Escherichia coli BL21 (DE3) cells assessed as dissociation constant incubated for 1 hrs by MST analysis

Structure (SMILES) | IC50 (RNA demethylase ALKBH5 [1]) [µM] | IC50 (RNA demethylase ALKBH5 [2]) [µM] | IC50 (RNA demethylase ALKBH5 [3]) [µM] | IC50 (RNA demethylase ALKBH5 [4]) [µM] | other results
O=C(CCl)Nc1cccc(S(=O)(=O)NC(=O)c2cc(C(=O)O)ccn2)c1 | 15 | 30.6 | 10.4 | – | –
COc1ccc(S(=O)(=O)NC(=O)c2cc(C(=O)O)ccn2)cc1 | – | – | – | 19.1 | –
COC(=O)c1ccnc(C(=O)NS(=O)(=O)c2ccccc2[N+](=O)[O-])c1 | – | – | – | > 200 | –
O=C(O)c1ccnc(C(=O)NS(=O)(=O)c2ccccc2-c2ccccc2)c1 | – | – | – | 82.1 | –
C=CC(=O)Nc1ccccc1S(=O)(=O)NC(=O)c1cc(C(=O)O)ccn1 | 21.6 | 21.2 | 19.2 | – | –
O=Cc1cc(S(=O)(=O)NC(=O)c2cc(C(=O)O)ccn2)ccc1O | 0.55 | 3.4 | 0.45 | – | –
COc1ccccc1S(=O)(=O)NC(=O)c1cc(C(=O)O)ccn1 | – | – | – | > 200 | –
N#Cc1ccccc1S(=O)(=O)NC(=O)c1cc(C(=O)O)ccn1 | – | – | – | > 200 | –
O=C(O)c1ccnc(C(=O)NS(=O)(=O)c2ccccc2)c1 | 51.9 | 64.9 | 52.1 | 56.8 | –
O=C(O)c1ccnc(C(=O)NS(=O)(=O)c2cccc(-c3ccccc3)c2)c1 | – | – | – | 15 | –
O=C(O)c1ccnc(C(=O)NS(=O)(=O)c2ccc3ccccc3c2)c1 | – | – | – | 15.2 | –
O=C(CCl)Nc1ccccc1S(=O)(=O)NC(=O)c1cc(C(=O)O)ccn1 | 12.5 | 18.4 | 10.8 | – | –
N#Cc1cccc(S(=O)(=O)NC(=O)c2cc(C(=O)O)ccn2)c1 | – | – | – | > 200 | –
CC(=O)c1cc(S(=O)(=O)NC(=O)c2cc(C(=O)O)ccn2)c2ccccc2c1O | 5.81 | 8.56 | 5.52 | – | –
CC(=O)c1cc(S(=O)(=O)NC(=O)c2cc(C(=O)O)ccn2)ccc1O | 6.5 | 14.8 | 4.38 | – | –
O=C(O)c1ccnc(C(=O)NS(=O)(=O)c2ccccc2C(F)(F)F)c1 | – | – | – | > 200 | –
C=CC(=O)Nc1cccc(S(=O)(=O)NC(=O)c2cc(C(=O)O)ccn2)c1 | 5.32 | 7.44 | 3.97 | – | –
O=C(O)c1ccnc(C(=O)NS(=O)(=O)c2ccc(-c3ccccc3)cc2)c1 | – | – | – | 16.5 | –
O=C(O)c1ccnc(C(=O)NS(=O)(=O)c2cccc3ccccc23)c1 | – | – | – | 12.7 | inhibition (RNA demethylase ALKBH5 [5]): inactive; inhibition (RNA demethylase ALKBH5 [6]): inactive; Kd (RNA demethylase ALKBH5 [7]): 61.7 µM; inhibition (RNA demethylase ALKBH5 [8]): Active; Kd (RNA demethylase ALKBH5 [9]): 42 µM; Kd (RNA demethylase ALKBH5 [10]): 52.2 µM; Kd (RNA demethylase ALKBH5 [11]): 63.9 µM; Kd (RNA demethylase ALKBH5 [12]): 58.7 µM
CN(C(=O)c1cc(C(=O)O)ccn1)S(=O)(=O)c1ccccc1[N+](=O)[O-] | – | – | – | > 200 | –
O=C(OCc1ccc(C(F)(F)F)cc1)c1ccc(-c2cc3ncc(C(=O)c4c(O)ccc([N+](=O)[O-])c4O)cn3n2)cc1 | – | – | – | 4.06 | –
O=C(O)c1cccc(C(=O)NS(=O)(=O)c2ccccc2[N+](=O)[O-])c1 | – | – | – | > 200 | –
O=C(O)c1ccnc(C(=O)NCc2ccccc2[N+](=O)[O-])c1 | – | – | – | > 200 | –
N#Cc1ccc(S(=O)(=O)NC(=O)c2cc(C(=O)O)ccn2)cc1 | – | – | – | 39.9 | –
